Nine compounds from the SangsterLogP compilation can be followed below.

By logD is commonly meant lipophilicity at a set pH, counting ionised and neutral species. A lower logD goes with lower lipophilicity.

The data set is described as follows: method code SF-AS, from DOI: 10.2298/ciceq100329044p. The note with it: pH 7.4.
Compound `Cc1nc2ccccc2n1Cc1ccc(Cl)cc1` displayed a logD of 4.07.

Compound `Cc1ccc(Cn2c(C)nc3ccccc32)cc1` displayed a logD of 4.01.

In turn, `Cc1nc2ccccc2n1Cc1ccccc1` had a logD of 3.51. In the case of `Nc1nc2ccccc2n1C(=O)c1ccc(Cl)cc1`, the log distribution coefficient (logD) is 3.45. As for `Nc1nc2ccccc2n1C(=O)c1ccccc1`, the logD was 2.9. On to `Cc1ccc(C(=O)n2c(N)nc3ccccc32)cc1`, for which the logD was 3.35. Regarding `Cc1ccc(C(=O)n2c(C)nc3ccccc32)cc1`, the logD stood at 3.87. `Cc1nc2ccccc2n1C(=O)c1ccccc1` returned a logD of 3.38.

Regarding `Cc1nc2ccccc2n1C(=O)c1ccc(Cl)cc1`, the logD is 3.95.
